The values below are quoted from earlier work in patent publication US10842805B2, “Compositions containing enriched natural crocin and/or crocetin, and their therapeutic or nutraceutical uses” (priority 2012, dated 2020).

The data set relates to ethanol-induced inhibition of hippocampal long-term potentiation. The following applies: mouse, in vivo.

On to `CC(/C=C/C=C(\C)C(=O)O)=C\C=C\C=C(C)\C=C\C=C(/C)C(=O)O` [crocetin], for which the “constituent to which the beneficial effect of saffron extract is attributed” value is reported as “not crocetin”.
For the compound `CC(/C=C/C=C(\C)C(=O)O[C@@H]1O[C@H](CO[C@@H]2O[C@H](CO)[C@@H](O)[C@H](O)[C@H]2O)[C@@H](O)[C@H](O)[C@H]1O)=C\C=C\C=C(C)\C=C\C=C(/C)C(=O)O[C@@H]1O[C@H](CO[C@@H]2O[C@H](CO)[C@@H](O)[C@H](O)[C@H]2O)[C@@H](O)[C@H](O)[C@H]1O` [crocin, Crocetin-di-beta-D-gentiobiosyl ester], the “constituent to which the beneficial effect of saffron extract is attributed” value is listed as “attributed to crocin”.
